# Patent publication US10689429B2, “Double-acylated GLP-1 compounds” (Novo Nordisk A/S, priority 2014, dated 2020)
# How the values were obtained:
# [1] = biological target: T1, human GLP-1 receptor (Homo sapiens, UniProt P43220); experiment: In vitro potency, CRE luciferase reporter gene assay in BHK cells expressing the human GLP-1 receptor; assay type: cell-based; conditions: average of duplicates;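 also: firefly luciferase luminescence read after 3 h incubation at 37 °C, compounds tested in an eight-point series from 0.01 pM to 100 nM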
# T1 construct: expressed in transfected cells; host or cells: membranes from BHK cells, parent line BHKTS13, clone FCW467-12A
# T1 sequence (P43220 24-463): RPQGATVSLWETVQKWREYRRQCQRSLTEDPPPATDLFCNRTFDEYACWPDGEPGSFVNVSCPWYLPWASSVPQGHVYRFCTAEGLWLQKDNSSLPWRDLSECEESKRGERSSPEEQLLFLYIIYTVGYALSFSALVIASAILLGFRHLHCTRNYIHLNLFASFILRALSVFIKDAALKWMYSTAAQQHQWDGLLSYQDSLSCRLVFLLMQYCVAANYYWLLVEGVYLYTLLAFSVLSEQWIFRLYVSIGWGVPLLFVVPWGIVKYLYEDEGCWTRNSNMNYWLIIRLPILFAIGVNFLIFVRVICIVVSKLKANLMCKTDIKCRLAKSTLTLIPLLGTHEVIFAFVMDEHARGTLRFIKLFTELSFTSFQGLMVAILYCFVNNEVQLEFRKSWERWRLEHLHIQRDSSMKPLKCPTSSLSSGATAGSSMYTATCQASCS
# Protocol: The in vitro potency is the measure of human GLP-1 receptor activation in a whole cell assay.
# In vitro potency was determined by measuring the response of the human GLP-1 receptor in a reporter gene assay. The assay was performed in a stably transfected BHK cell line that expresses the human GLP-1 receptor and contains the DNA for the cAMP response element (CRE) coupled to a promoter and the gene for firefly luciferase (CRE luciferase). When the human GLP-1 receptor is activated it results in the production of cAMP, which in turn results in the luciferase protein being expressed. When assay incubation is completed the luciferase substrate (luciferin) is added and the enzyme converts luciferin to oxyluciferin to produce bioluminescence. The luminescence is measured as the readout for the assay.
# An increase of the in vitro potency, EC50 value, in the presence of serum albumin would indicate an affinity to serum albumin and represents a method to predict a protracted pharmacokinetic profile of the test substance in animal models.
# The cells were cultured at 5% CO2 in Cell Culture Medium. They were aliquoted and stored in liquid nitrogen. Before each assay an aliquot is taken up and washed twice in PBS before being suspended at the desired concentration in the assay specific buffer. For 96-well plates the suspension was made to give a final concentration of 5×10^3 cells/well.
# Assay Medium consisted of DMEM w/o phenol red, 10 mM Hepes and 1× Glutamax. The 1% Assay Buffer consisted of 2% ovalbumin, 0.2% Pluronic F-68 and 2% HSA in Assay Medium. The 0% Assay Buffer consisted of 2% ovalbumin and 0.2% Pluronic F-68 in Assay Medium.
# 1) Cell stocks were thawed in a 37° C. water bath.
# 2) Cells were washed three times in PBS.
# 3) The cells were counted and adjusted to 5×10^3 cells/50 μl (1×10^5 cells/ml) in Assay Medium. A 50 μl aliquot of cells was transferred to each well in the assay plate.
# 4) Stocks of the test compounds and reference compounds were diluted to a concentration of 0.2 pM in 0% Assay Buffer for the 0% HSA CRE luciferase assay and 1% Assay Buffer for the 1% HSA CRE luciferase assay. […] Compounds were tested at the following final concentrations: 1×10^−7 M, 1×10^−8 M; 1×10^−9 M, 1×10^−10 M, 1×10^−11 M, 1×10^−12 M, 1×10^−13 M, and 1×10^−14 M. 6) The assay plate was incubated for 3 h in a 5% CO2 incubator at 37° C. […] 8) A 100 μl aliquot of steadylite plus reagent was added to each well of the assay plate (reagent was light sensitive). 9) Each assay plate was covered with aluminum foil to protect it from light and shaken for 30 min at room temperature. 10) Each assay plate was read in a Packard TopCount NXT instrument. Calculations and Results
# The data from the TopCount instrument were transferred to GraphPad Prism software. The software performs a non-linear regression (log(agonist) vs response).
# A minimum of two replicates was measured for each sample on separate assay plates. The reported values are averages of the duplicates. For some examples more than one assay was run and in this case the data reported are the averages of the averaged duplicates.
# [2] = Pharmacokinetic study in mini pigs after i.v. administration; assay type: in vivo; conditions: female, Göttingen, pig, plasma, iv, 2 nmol/kg; read-out: Minipig iv PK, t½ (converted)
# Protocol: The purpose of this study is to determine the protraction in vivo of the GLP-1 derivatives after i.v. administration to mini pigs, i.e. the prolongation of their time in the body and thereby their time of action. This was done in pharmacokinetic (PK) studies, where the terminal half-life of the derivative in question was determined. By terminal half-life is generally meant the period of time it takes to halve a certain plasma concentration, measured after the initial distribution phase.
# Female Göttingen mini pigs obtained from Ellegaard Göttingen Minipigs (Dalmose, Denmark) at approximately 5 months of age and weighing approximately 10 kg were used in the studies. The mini pigs were housed in pens with straw as bedding, four to six together in each pen and fed restrictedly once or twice daily with Altromin 9023 mini pig diet (Chr. Petersen A/S, DK-4100 Ringsted). The pigs were used for repeated pharmacokinetic studies with a suitable wash-out period between successive GLP-1 derivative dosings. An acclimatisation period of 1 week was allowed during which time the mini pigs were trained to be fixated on the back for blood sampling and in slings for i.v. dosing. All handling, dosing and blood sampling of the animals was performed by trained and skilled staff.
# The GLP-1 derivatives were dissolved in 50 mM sodium phosphate, 70 mM sodium chloride, 0.05% tween 80, pH 7.4 to a concentration of approximately 20 nmol/ml. Intravenous injections (the volume corresponding to usually 2 nmol/kg, for example 0.1 ml/kg) of the compounds were given as intravenous injections via a Venflon inserted in an ear vein, while the animals were placed un-anaesthetised in a sling. The dose volume was 0.1 ml/kg, and blood was sampled at predefined time points for up till 13 days post dosing (samples were taken with a syringe from a jugular vein). Blood samples (for example 0.8 ml) were collected in EDTA buffer (8 mM) and then centrifuged at 4° C. and 2000 G for 10 minutes.
# Individual plasma concentration-time profiles were analysed by a non-compartmental model in WinNonlin v. […] 6.2 or 6.3 (Pharsight Inc., Mountain View, Calif., USA), or other relevant software for PK analysis, and the resulting terminal half-lives determined.
# [3] = Pharmacokinetic studies in Beagle dogs (i.v. and p.o.); assay type: in vivo; conditions: dog, plasma, iv, 2 nmol/kg, read-out: Beagle dogs iv PK, t½ (converted)
# Protocol: Pharmacokinetic (PK) studies in Beagle dogs were conducted in order to determine a) the protraction of the GLP-1 derivatives after i.v. administration, and b) the bioavailability of the GLP-1 derivatives after p.o. administration.
# By protraction is meant the prolongation of the time in the body and thereby the time of action of the GLP-1 derivatives. This was done in pharmacokinetic (PK) studies, where the terminal half-life of the derivative in question was determined. By terminal half-life is generally meant the period of time it takes to halve a certain plasma concentration, measured after the initial distribution phase.
# The dogs were housed in pens (12 hours light: 12 hours dark) with softwood based granules as bedding, two together in each pen and fed restrictedly once daily with […] ™ Struvite Management Diet (Dechra Veterinary Products, UK). Exercise was permitted daily, whenever possible. The dogs were used for repeated pharmacokinetic studies with a suitable wash-out period between successive GLP-1 derivative dosings. An acclimatisation period of 4 weeks was allowed during which time the dogs were trained. All handling, dosing and blood sampling of the animals was performed by trained and skilled staff. The dogs were fasted overnight before dosing and from 0 to 4 h after dosing, but had ad libitum access to water during the whole period.
# The dogs were housed in social groups (12 hours light: 12 hours dark), and fed individually and restrictedly once daily with Royal Canin Medium Adult dog (Royal Canin Products, China Branch, or Brogaarden A/S, Denmark). Exercise and group social was permitted daily, whenever possible. The dogs were used for repeated pharmacokinetic studies with a suitable wash-out period between successive GLP-1 derivative dosings. An appropriate acclimatisation period was given prior to initiation of the first pharmacokinetic study. All handling, dosing and blood sampling of the animals was performed by trained and skilled staff. Before the studies the dogs were fasted overnight and from 0 to 4 h after dosing. […]
smiles,measurement,setting,value
"CC[C@H](C)[C@H](NC(=O)[C@H](Cc1ccccc1)NC(=O)[C@H](CCC(=O)O)NC(=O)[C@H](CCCNC(=N)N)NC(=O)[C@H](C)NC(=O)[C@H](C)NC(=O)[C@H](CCC(N)=O)NC(=O)[C@H](CCC(=O)O)NC(=O)[C@H](CCC(=O)O)NC(=O)[C@H](CC(C)C)NC(=O)[C@H](Cc1ccc(O)cc1)NC(=O)[C@H](CO)NC(=O)[C@H](CO)NC(=O)[C@@H](NC(=O)[C@H](CC(=O)O)NC(=O)[C@H](CO)NC(=O)[C@@H](NC(=O)[C@H](Cc1ccccc1)NC(=O)[C@@H](NC(=O)CNC(=O)[C@H](CCC(=O)O)NC(=O)C(C)(C)NC(=O)[C@@H](N)Cc1c[nH]cn1)[C@@H](C)O)[C@@H](C)O)C(C)C)C(=O)N[C@@H](C)C(=O)N[C@@H](Cc1c[nH]c2ccccc12)C(=O)N[C@@H](CC(C)C)C(=O)N[C@H](C(=O)N[C@@H](CCCNC(=N)N)C(=O)NCC(=O)N[C@@H](CCCCNC(=O)COCCOCCNC(=O)COCCOCCNC(=O)CC[C@H](NC(=O)CCCCCCCCCOc1cccc(C(=O)O)c1)C(=O)O)C(=O)N[C@@H](CCCCNC(=O)COCCOCCNC(=O)COCCOCCNC(=O)CC[C@H](NC(=O)CCCCCCCCCOc1cccc(C(=O)O)c1)C(=O)O)C(=O)O)C(C)C [Example 15, N{Epsilon-36}-[2-[2-[2-[[2-[2-[2-[[(4S)-4-carboxy-4-[10-(3-carboxyphenoxy)decanoylamino]butanoyl]amino]ethoxy]ethoxy]acetyl]amino]ethoxy]ethoxy]acetyl], N{Epsilon-37}-[2-[2-[2-[[2-[2-[2-[[(4S)-4-carboxy-4-[10-(3-carboxyphenoxy)decanoylamino]butanoyl]amino]ethoxy]ethoxy]acetyl]amino]ethoxy]ethoxy]acetyl]-[Aib8,Glu22,Arg26,Arg34,Lys36,Lys37]-GLP-1-(7-37)-peptide]",EC50,"[1]; EC50/pM (0% HSA), 0% HSA",6.1 pM
same,EC50,"[1]; EC50/pM (1% HSA), 1% HSA final assay concentration",44 pM
same,half-life,[2],144 h
same,half-life,[3],111 h
